Key:
Assay in all cases: SelectScreen kinase profiling, SSBK ZLyte SP Technology
Assay type in all cases: biochemical
[1] = target: kinase named in conditions (Homo sapiens, UniProt P00519, F317I); conditions: ABL1 F317I, 10 μM
Method: (§1) Kinase selectivity screening was performed by Thermo Fisher Scientific (Paisley, U.K.) in their SelectScreen Biochemical Kinase Profiling Service. Assay information and data are presented in the Supporting Information.
(§2) Kinase selectivity screening was performed by ThermoFisher Scientific (Paisley, U.K.) in their SelectScreenTM
(§3) Biochemical Kinase Profiling service .

[2] = target: kinase named in conditions (Homo sapiens, UniProt P00533, C797S/L858R/T790M); conditions: EGFR (ErbB1) T790M C797S L858R, 10 μM
Method: as §1, §2, §3

[3] = target: kinase named in conditions (Homo sapiens, UniProt P04049, Y340D/Y341D); conditions: RAF1 (cRAF) Y340D Y341D, 10 μM
Method: as §1, §2, §3

[4] = target: kinase named in conditions (Homo sapiens, UniProt P06213); conditions: INSR, 10 μM
Method: as §1, §2, §3

[5] = target: kinase named in conditions (Homo sapiens, UniProt P06241); conditions: FYN, 10 μM
Method: as §1, §2, §3

[6] = target: kinase named in conditions (Homo sapiens, UniProt P10721, T670I); conditions: KIT T670I, 10 μM
Method: as §1, §2, §3

[7] = target: kinase named in conditions (Homo sapiens, UniProt P10721, V559D/V654A); conditions: KIT V559D V654A, 10 μM
Method: as §1, §2, §3

[8] = target: kinase named in conditions (Homo sapiens, UniProt P16591); conditions: FER, 10 μM
Method: as §1, §2, §3

[9] = target: kinase named in conditions (Homo sapiens, UniProt P28482); conditions: MAPK1 (ERK2), 10 μM
Chain of kinase named in conditions (Homo sapiens, UniProt P28482) (P28482 whole entry): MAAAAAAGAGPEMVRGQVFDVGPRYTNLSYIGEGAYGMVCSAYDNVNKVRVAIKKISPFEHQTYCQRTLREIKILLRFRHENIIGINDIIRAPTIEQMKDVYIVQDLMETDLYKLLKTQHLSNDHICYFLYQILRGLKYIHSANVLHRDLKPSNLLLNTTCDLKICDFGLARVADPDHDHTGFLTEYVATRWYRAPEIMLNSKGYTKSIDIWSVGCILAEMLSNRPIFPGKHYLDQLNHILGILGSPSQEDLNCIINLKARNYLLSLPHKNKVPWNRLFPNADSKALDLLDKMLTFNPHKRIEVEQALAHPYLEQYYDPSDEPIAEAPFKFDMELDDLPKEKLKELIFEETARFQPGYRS
Method: as §1, §2, §3

[10] = target: kinase named in conditions (Homo sapiens, UniProt P29322); conditions: EPHA8, 10 μM
Method: as §1, §2, §3

[11] = target: kinase named in conditions (Homo sapiens, UniProt P31751); conditions: AKT2 (PKB beta), 10 μM
Method: as §1, §2, §3

[12] = target: kinase named in conditions (Homo sapiens, UniProt P49137); conditions: MAPKAPK2, 10 μM
Chain of kinase named in conditions (Homo sapiens, UniProt P49137) (P49137 whole entry): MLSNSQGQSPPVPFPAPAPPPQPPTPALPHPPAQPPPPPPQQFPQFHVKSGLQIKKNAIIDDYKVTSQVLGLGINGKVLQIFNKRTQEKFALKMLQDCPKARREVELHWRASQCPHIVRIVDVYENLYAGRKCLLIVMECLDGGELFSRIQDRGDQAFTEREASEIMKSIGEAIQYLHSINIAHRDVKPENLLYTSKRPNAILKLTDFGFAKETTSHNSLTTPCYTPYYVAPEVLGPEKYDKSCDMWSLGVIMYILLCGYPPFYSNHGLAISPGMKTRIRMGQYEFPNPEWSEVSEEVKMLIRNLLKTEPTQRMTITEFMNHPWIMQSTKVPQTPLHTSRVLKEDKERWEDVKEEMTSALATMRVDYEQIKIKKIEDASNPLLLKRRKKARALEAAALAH
Method: as §1, §2, §3

[13] = target: kinase named in conditions (Homo sapiens, UniProt P49760); conditions: CLK2, 10 μM
Method: as §1, §2, §3

[14] = target: kinase named in conditions (Homo sapiens, UniProt P49761); conditions: CLK3, 10 μM
Chain of kinase named in conditions (Homo sapiens, UniProt P49761) (P49761 whole entry): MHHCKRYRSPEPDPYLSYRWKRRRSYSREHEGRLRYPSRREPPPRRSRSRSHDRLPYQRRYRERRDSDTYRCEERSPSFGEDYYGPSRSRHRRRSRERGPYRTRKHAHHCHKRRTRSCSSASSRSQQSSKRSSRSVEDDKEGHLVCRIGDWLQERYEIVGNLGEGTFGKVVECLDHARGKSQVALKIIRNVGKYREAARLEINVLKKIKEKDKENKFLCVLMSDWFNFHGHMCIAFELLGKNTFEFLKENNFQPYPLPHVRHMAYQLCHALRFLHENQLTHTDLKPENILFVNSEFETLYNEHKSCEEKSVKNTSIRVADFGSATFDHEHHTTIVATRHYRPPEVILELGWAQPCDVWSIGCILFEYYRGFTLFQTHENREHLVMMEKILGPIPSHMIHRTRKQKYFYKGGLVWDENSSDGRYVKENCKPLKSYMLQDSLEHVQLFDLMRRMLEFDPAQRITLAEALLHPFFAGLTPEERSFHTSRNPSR
Method: as §1, §2, §3

[15] = target: kinase named in conditions (Homo sapiens, UniProt P51955); conditions: NEK2, 10 μM
Method: as §1, §2, §3

[16] = target: kinase named in conditions (Homo sapiens, UniProt P52333); conditions: JAK3, 10 μM
Method: as §1, §2, §3

[17] = target: kinase named in conditions (Homo sapiens, UniProt P80192); conditions: MAP3K9 (MLK1), 10 μM
Method: as §1, §2, §3

[18] = target: kinase named in conditions (Homo sapiens, UniProt Q07002); conditions: CDK18/cyclin Y, 10 μM
Method: as §1, §2, §3

[19] = target: kinase named in conditions (Homo sapiens, UniProt Q08881); conditions: ITK, 10 μM
Chain of kinase named in conditions (Homo sapiens, UniProt Q08881) (Q08881 whole entry): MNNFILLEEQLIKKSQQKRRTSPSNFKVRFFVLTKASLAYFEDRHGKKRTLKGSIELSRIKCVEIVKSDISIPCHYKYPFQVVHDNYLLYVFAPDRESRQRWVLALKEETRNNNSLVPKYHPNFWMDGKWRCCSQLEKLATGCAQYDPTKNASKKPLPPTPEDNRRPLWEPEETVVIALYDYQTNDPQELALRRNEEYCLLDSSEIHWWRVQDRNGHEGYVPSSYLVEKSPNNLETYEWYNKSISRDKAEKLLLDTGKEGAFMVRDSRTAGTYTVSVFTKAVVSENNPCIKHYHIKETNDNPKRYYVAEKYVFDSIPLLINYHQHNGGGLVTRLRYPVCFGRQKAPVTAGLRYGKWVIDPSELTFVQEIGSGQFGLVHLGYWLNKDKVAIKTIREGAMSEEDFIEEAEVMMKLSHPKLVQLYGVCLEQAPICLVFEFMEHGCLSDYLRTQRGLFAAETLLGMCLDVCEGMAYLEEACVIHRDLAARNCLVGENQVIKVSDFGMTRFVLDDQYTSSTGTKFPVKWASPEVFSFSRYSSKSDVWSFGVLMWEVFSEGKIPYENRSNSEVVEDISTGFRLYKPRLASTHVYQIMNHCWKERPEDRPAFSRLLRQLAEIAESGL
Method: as §1, §2, §3

[20] = target: kinase named in conditions (Homo sapiens, UniProt Q13554); conditions: CAMK2B (CaMKII beta), 10 μM
Chain of kinase named in conditions (Homo sapiens, UniProt Q13554) (Q13554 whole entry): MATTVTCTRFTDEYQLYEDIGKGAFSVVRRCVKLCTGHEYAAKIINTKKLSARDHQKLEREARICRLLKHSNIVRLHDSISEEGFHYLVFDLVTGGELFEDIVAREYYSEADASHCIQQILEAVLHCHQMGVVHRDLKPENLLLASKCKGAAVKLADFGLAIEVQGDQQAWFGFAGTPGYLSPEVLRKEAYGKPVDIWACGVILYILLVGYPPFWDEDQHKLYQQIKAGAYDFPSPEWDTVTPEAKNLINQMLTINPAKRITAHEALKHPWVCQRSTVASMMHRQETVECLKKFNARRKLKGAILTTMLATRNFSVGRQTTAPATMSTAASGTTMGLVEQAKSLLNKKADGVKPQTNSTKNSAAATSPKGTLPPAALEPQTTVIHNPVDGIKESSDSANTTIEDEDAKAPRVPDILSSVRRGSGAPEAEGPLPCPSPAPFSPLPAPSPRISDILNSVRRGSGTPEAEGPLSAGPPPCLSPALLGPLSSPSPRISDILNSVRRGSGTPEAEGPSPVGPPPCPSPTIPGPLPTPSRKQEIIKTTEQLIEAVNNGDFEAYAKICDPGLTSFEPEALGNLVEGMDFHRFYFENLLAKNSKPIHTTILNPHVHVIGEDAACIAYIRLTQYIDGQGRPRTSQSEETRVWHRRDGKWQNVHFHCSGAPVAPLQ
Method: as §1, §2, §3

[21] = target: kinase named in conditions (Homo sapiens, UniProt Q14680); conditions: MELK, 10 μM
Method: as §1, §2, §3

[22] = target: kinase named in conditions (Homo sapiens, UniProt Q15139); conditions: PRKD1 (PKC mu), 10 μM
Chain of kinase named in conditions (Homo sapiens, UniProt Q15139) (Q15139 whole entry): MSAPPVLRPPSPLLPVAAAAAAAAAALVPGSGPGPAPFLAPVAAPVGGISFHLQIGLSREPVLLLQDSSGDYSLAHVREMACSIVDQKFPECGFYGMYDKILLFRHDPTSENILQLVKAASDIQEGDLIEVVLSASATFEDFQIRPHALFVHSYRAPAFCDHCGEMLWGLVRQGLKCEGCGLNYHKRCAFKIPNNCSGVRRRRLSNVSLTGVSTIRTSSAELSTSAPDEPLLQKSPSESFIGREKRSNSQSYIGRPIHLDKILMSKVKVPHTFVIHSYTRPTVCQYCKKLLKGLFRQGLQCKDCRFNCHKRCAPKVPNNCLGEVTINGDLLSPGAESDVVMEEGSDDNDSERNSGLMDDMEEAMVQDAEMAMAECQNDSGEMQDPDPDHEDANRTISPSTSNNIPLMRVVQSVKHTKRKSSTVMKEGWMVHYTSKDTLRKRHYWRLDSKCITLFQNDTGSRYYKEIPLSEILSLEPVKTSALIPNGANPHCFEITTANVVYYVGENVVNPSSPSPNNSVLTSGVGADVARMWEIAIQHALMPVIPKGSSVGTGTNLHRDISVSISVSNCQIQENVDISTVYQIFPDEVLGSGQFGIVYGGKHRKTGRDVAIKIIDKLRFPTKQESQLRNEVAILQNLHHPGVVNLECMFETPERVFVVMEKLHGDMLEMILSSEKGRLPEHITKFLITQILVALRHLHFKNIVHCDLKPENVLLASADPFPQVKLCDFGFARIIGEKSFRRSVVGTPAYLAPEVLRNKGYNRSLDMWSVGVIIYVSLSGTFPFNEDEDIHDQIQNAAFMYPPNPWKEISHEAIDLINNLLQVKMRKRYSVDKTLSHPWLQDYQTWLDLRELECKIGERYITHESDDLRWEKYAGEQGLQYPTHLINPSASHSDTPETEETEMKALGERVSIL
Method: as §1, §2, §3

[23] = target: kinase named in conditions (Homo sapiens, UniProt Q15759); conditions: MAPK11 (p38 beta), 10 μM
Chain of kinase named in conditions (Homo sapiens, UniProt Q15759) (Q15759 whole entry): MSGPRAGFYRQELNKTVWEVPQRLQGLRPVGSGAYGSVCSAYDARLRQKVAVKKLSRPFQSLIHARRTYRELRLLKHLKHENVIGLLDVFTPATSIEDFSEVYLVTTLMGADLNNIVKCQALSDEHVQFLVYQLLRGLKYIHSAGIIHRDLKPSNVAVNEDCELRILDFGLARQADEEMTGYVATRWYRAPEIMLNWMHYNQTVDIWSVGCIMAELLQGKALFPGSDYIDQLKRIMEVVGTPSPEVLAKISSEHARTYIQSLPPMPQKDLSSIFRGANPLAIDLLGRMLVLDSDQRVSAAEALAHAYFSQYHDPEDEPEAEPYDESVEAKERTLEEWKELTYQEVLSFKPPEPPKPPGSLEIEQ
Method: as §1, §2, §3

[24] = target: kinase named in conditions (Homo sapiens, UniProt Q16644); conditions: MAPKAPK3, 10 μM
Method: as §1, §2, §3

[25] = target: kinase named in conditions (Homo sapiens, UniProt Q6VAB6); conditions: KSR2, 10 μM
Method: as §1, §2, §3

[26] = target: kinase named in conditions (Homo sapiens, UniProt Q86Z02); conditions: HIPK1 (Myak), 10 μM
Method: as §1, §2, §3

[27] = target: kinase named in conditions (Homo sapiens, UniProt Q8TD19); conditions: NEK9, 10 μM
Method: as §1, §2, §3

[28] = target: kinase named in conditions (Homo sapiens, UniProt Q96NX5); conditions: CAMK1G (CAMKI gamma), 10 μM
Method: as §1, §2, §3

[29] = target: kinase named in conditions (Homo sapiens, UniProt Q96PF2); conditions: STK22B (TSSK2), 10 μM
Method: as §1, §2, §3

[30] = target: kinase named in conditions (Homo sapiens, UniProt Q9NYY3); conditions: PLK2, 10 μM
Chain of kinase named in conditions (Homo sapiens, UniProt Q9NYY3) (Q9NYY3 whole entry): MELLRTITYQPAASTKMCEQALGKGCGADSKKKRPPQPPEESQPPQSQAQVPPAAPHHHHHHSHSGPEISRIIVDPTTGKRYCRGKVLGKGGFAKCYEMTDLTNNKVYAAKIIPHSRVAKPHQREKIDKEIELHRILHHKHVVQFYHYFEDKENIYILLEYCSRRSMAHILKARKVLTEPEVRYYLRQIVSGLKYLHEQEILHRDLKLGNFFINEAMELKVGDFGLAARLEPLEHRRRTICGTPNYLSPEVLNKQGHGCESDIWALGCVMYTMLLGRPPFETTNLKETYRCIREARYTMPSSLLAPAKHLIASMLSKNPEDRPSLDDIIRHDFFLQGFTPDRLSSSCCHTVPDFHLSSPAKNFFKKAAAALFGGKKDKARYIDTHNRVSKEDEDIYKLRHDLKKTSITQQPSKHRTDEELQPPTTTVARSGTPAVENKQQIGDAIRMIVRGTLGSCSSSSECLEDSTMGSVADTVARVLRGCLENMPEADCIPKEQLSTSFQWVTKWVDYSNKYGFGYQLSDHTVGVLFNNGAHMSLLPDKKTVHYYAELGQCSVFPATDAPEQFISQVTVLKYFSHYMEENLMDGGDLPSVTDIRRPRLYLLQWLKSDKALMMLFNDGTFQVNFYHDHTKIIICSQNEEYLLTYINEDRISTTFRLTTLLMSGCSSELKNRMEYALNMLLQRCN
Method: as §1, §2, §3

[31] = target: kinase named in conditions (Homo sapiens, UniProt Q9UQB9); conditions: AURKC (Aurora C), 10 μM
Method: as §1, §2, §3

[32] = target: kinase named in conditions (Homo sapiens, UniProt Q9Y4K4); conditions: MAP4K5 (KHS1), 10 μM
Method: as §1, §2, §3

[33] = target: kinase named in conditions (Homo sapiens, UniProt Q9Y6E0); conditions: STK24 (MST3), 10 μM
Chain of kinase named in conditions (Homo sapiens, UniProt Q9Y6E0) (Q9Y6E0 whole entry): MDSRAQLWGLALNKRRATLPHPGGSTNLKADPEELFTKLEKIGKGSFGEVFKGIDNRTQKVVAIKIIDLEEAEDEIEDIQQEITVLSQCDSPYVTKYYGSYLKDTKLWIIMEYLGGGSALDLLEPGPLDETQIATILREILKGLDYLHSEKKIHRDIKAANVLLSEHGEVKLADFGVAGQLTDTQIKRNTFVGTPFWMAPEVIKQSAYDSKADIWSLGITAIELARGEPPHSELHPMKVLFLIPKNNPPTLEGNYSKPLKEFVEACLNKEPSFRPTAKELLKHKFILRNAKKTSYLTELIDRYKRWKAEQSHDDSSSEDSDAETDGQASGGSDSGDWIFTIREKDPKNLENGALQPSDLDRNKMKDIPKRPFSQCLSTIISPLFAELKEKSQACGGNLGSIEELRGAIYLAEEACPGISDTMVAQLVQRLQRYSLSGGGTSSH
Method: as §1, §2, §3

[34] = test system: kinase named in conditions
Method: as §1, §2, §3

## FC(F)(F)c1c(Cl)ccc(-n2ccnn2)c1Cl [8l, 1-(2,4-Dichloro-3-(trifluoromethyl)phenyl)-1H-1,2,3-triazole]
[1]
  inhibition at 10 µM: 13%
[2]
  inhibition at 10 µM: -17%
[3]
  inhibition at 10 µM: 10%
[4]
  inhibition at 10 µM: 6%
[5]
  inhibition at 10 µM: 0%
[6]
  inhibition at 10 µM: 10%
[7]
  inhibition at 10 µM: 1%
[8]
  inhibition at 10 µM: 2%
[9]
  inhibition at 10 µM: -2%
[10]
  inhibition at 10 µM: 2%
[11]
  inhibition at 10 µM: 7%
[12]
  inhibition at 10 µM: 1%
[13]
  inhibition at 10 µM: 18%
[14]
  inhibition at 10 µM: 2%
[15]
  inhibition at 10 µM: -11%
[16]
  inhibition at 10 µM: 7%
[17]
  inhibition at 10 µM: -4%
[18]
  inhibition at 10 µM: 4%
[19]
  inhibition at 10 µM: -4%
[20]
  inhibition at 10 µM: 4%
[21]
  inhibition at 10 µM: 12%
[22]
  inhibition at 10 µM: 11%
[23]
  inhibition at 10 µM: 6%
[24]
  inhibition at 10 µM: 1%
[25]
  inhibition at 10 µM: 2%
[26]
  inhibition at 10 µM: 2%
[27]
  inhibition at 10 µM: -3%
[28]
  inhibition at 10 µM: 2%
[29]
  inhibition at 10 µM: -2%
[30]
  inhibition at 10 µM: 15%
[31]
  inhibition at 10 µM: 19%
[32]
  inhibition at 10 µM: -10%
[33]
  inhibition at 10 µM: 5%
[34]; LYN B, 10 μM
  % Inhibition mean: 7%
[34]; PRKCB2 (PKC beta II), 10 μM
  % Inhibition mean: -17%
[34]; SRC N1, 10 μM
  % Inhibition mean: 4%
